According to patent EP3720857B1, “2-OXO-5H-CHROMENO[4,3-B]PYRIDINES FOR USE IN THE TREATMENT OF HEPATITIS B” (Galapagos NV, priority 2017, dated 2019):

Tested on: hepatitis virus B (HBV) infection
Test: HepG2 NTCP assay (HBcAg staining as marker of HBV infection)
Type: cell-based
Conditions: HepG2-NTCP cells infected with HBV, HBV core antigen (HBcAg) as marker of infection
Description: The principle of the hepG2-NTCP assay is to measure the effect of a test compound on the inhibition of the hepatitis virus B (HBV) infection compared to a reference compound. To be able to infect the hepatocellular carcinoma cells (HepG2) with HBV, HepG2 cells were stably transfected with the Na+-taurocholate co-transporting polypeptide (NTCP) receptor, also referred to as Sodium/bile acid cotransporter (SLC10A1), which is necessary for HBV infection. In this assay the HBV core antigen (HBcAg) is used as a marker of HBV infection. Nuclei count is used as an indication for compound toxicity.
On day one, HepG2-NTCP cells ((Ni et al., 2014)) are seeded at 5000 cells in 50 µL per well in assay medium (DMEM high glucose supplemented with 10% non-heat inactivated (non HI) fetal bovine serum (FBS), 1% P/S, 1% L-glutamine and 1% MEM NEAA) in 384 well plate and incubated at 37°C, 5% CO2 overnight.
Compounds are prepared as 10 point serial dilutions using 1/3 dilution steps in 100% DMSO starting from 10 mM highest concentration, unless otherwise requested for very potent compounds, which started from 5mM or 1mM stock. Compounds are further diluted 1/500 in assay medium.
A negative control (vehicle: 24 wells with 0.2% DMSO) and positive control (24 wells with 100nM Myrcludex B (Cas no.: 406461-66-3), 0.2% DMSO and in 10 point DR) are included in the experiments.
On the second day, 40µl medium is removed from the cells with the plate washer (Select 405 microplate washer, Biotek). 15 µL of diluted compound series is transferred to the assay plate and cells are infected with 15 µL of HBV mix (HBV virus, 4%PEG, 1%DMSO in assay medium). The infection is performed in assay medium containing final concentration of 1% DMSO. The assay plate is incubated at 37°C, 5% CO2 overnight.
The next day, 30µl compound and HBV mix are removed from the assay plate with the plate washer and 30 µL of compound series diluted 1/500 in assay medium containing final concentration of 2.5% DMSO is added to the cell assay plate. The assay plate is incubated at 37°C, 5% CO2 for 5 days.
After 5 days of incubation, supernatant is removed from the cells with the plate washer. Cells are fixed with 50 µL of 3.7% formaldehyde added with the Well mate (Matrix technologies) and incubated for 30 min at room temperature. After fixation, cells are washed four times with phosphate buffer saline (1xPBS, 137mM NaCl, 10mM na2HPO4, 2.7mM KCl, 1.8mM KH2PO4 at pH7.4). The cells are finally subjected to HBc staining.
First, the assay plate is blocked with blocking buffer (2%FBS, 3% BSA, 0.2% TritonX100 in PBS) for 1 h at room temperature (optional to block overnight at 4°C).
After 4 washes of PBST (1XPBS + 0.05% Tween) with the plate washer, the assay plate is incubated with 30 µL diluted primary antibody (1/700 Rabbit anti-HBV core antigen, Dako, B0586 or 1/350 Rabbit anti HBV core antigen, Invitrogen, PA516368) in blocking buffer and incubated for 90 min at room temperature.
After 4 washes of PBST with the plate washer, the assay plate is incubated with 50 µL of secondary antibody (Donkey-anti-rabbit Alexa 488 antibody, Lifetechnologies A21206) 1/500 diluted in blocking buffer and incubated for 60 min at room temperature and in the dark.
The assay plate is washed 4 times with PBST on the plate washer and incubated with 50µL of DAPI (Sigma D9542, stock 5mg/mL) 1/10000 diluted in PBS for 15-30 min at room temperature and in the dark. The assay plate is now ready for read out on the InCell Analyzer 2200 (GE Healthcare).
Raw data are generated following read-out performed on InCell 2200 and are imported into the galapagos LIMS for automated calculation of percentage inhibition (PIN) and toxicity by nuclei count, using the control wells mentioned above, and creation of Dose Response curves. Table V. Hepg2 NTCP assay activity of illustrative compounds of the invention

Row | SMILES | IC50 [nM]
1 | CC(C)C1Oc2cc(OC[C@@H]3COCCO3)c(Cl)cc2-c2c1cc(C(=O)O)c(=O)n2C1CC1 (stereo partly drawn) [Compound 50, 9-chloro-1-cyclopropyl-8-[[(2S)-1,4-dioxan-2-yl]methoxy]-5-isopropyl-2-oxo-5H-chromeno[4,3-b]pyridine-3-carboxylic acid] | 0.001 to 1
2 | CC(C)C1Oc2cc(OC[C@H]3COCCO3)c(Cl)cc2-c2c1cc(C(=O)O)c(=O)n2C1CC1 (stereo partly drawn) [Compound 51, 9-chloro-1-cyclopropyl-8-[[(2R)-1,4-dioxan-2-yl]methoxy]-5-isopropyl-2-oxo-5H-chromeno[4,3-b]pyridine-3-carboxylic acid] | 0.001 to 1
3 | CC(C)C1Oc2cc(OCC3(C)COC3)c(Cl)cc2-c2c1cc(C(=O)O)c(=O)n2C1CC1 (stereo not drawn) [Compound 52, 9-chloro-1-cyclopropyl-5-isopropyl-8-[(3-methyloxetan-3-yl)methoxy]-2-oxo-5H-chromeno[4,3-b]pyridine-3-carboxylic acid] | 0.001 to 1
4 | COCCCOc1cc2c(cc1Cl)-c1c(cc(C(=O)O)c(=O)n1C1CC1)C(C1CCOC1)O2 (stereo not drawn) [Compound 53, 9-chloro-1-cyclopropyl-8-(3-methoxypropoxy) -2-oxo-5-tetrahydrofuran-3-yl-5H-chromeno[4,3-b]pyridine-3-carboxylic acid] | 0.001 to 1
5 | COCCCOc1cc2c(cc1Cl)-c1c(cc(C(=O)O)c(=O)n1C1CC1)C(C1CCOCC1)O2 (stereo not drawn) [Compound 54, 9-chloro-1-cyclopropyl-8-(3-methoxypropoxy) -2-oxo-5-tetrahydropyran-4-yl-5H-chromeno[4,3-b]pyridine-3-carboxylic acid] | 0.001 to 1
6 | COc1cc2c(cc1Cl)-c1c(cc(C(=O)O)c(=O)n1C1CC1)C(C1(C)COC1)O2 (stereo not drawn) [Compound 55, 9-chloro-1-cyclopropyl-8-methoxy-5-(3-methyloxetan-3-yl)-2-oxo-5H-chromeno[4,3-b]pyridine-3-carboxylic acid] | 0.001 to 1
7 | CCOc1cc2c(cc1Cl)-c1c(cc(C(=O)O)c(=O)n1C1CC1)C(C1(C)COC1)O2 (stereo not drawn) [Compound 56, 9-chloro-1-cyclopropyl-8-ethoxy-5-(3-methyloxetan-3-yl)-2-oxo-5H-chromeno[4,3-b]pyridine-3-carboxylic acid] | 0.001 to 1
8 | CC1(C2Oc3cc(OCC4CC4)c(Cl)cc3-c3c2cc(C(=O)O)c(=O)n3C2CC2)COC1 (stereo not drawn) [Compound 57, 9-chloro-1-cyclopropyl-8-(cyclopropylmethoxy)-5-(3-methyloxetan-3-yl)-2-oxo-5H-chromeno[4,3-b]pyridine-3-carboxylic acid] | 1 to 20
9 | [2H]C([2H])([2H])Oc1cc2c(cc1Cl)-c1c(cc(C(=O)O)c(=O)n1C1CC1)C(C1(C)COC1)O2 (stereo not drawn) [Compound 58, 9-chloro-1-cyclopropyl-5-(3-methyloxetan-3-yl)-2-oxo-8-(trideuteriomethoxy)-5H-chromeno[4,3-b]pyridine-3-carboxylic acid] | 0.001 to 1
10 | O=C(O)c1cc2c(n(C3CC3)c1=O)-c1cc(F)c(F)cc1OC2 [Compound 59, 1-cyclopropyl-8,9-difluoro-2-oxo-5H-chromeno[4,3-b]pyridine-3-carboxylic acid] | > 100
11 | O=C(O)c1cc2c(n(C3CC3)c1=O)-c1cc(Cl)c(F)cc1OC2 [Compound 60, 9-chloro-1-cyclopropyl-8-fluoro-2-oxo-5H-chromeno[4,3-b]pyridine-3-carboxylic acid] | > 100
12 | O=C(O)c1cc2c(n(C3CC3)c1=O)-c1cc(Cl)c(Cl)cc1OC2 [Compound 61, 8,9-dichloro-1-cyclopropyl-2-oxo-5H-chromeno[4,3-b]pyridine-3-carboxylic acid] | 1 to 20
13 | COCCCOc1cc2c(cc1C(F)(F)F)-c1c(cc(C(=O)O)c(=O)n1C1CC1)C(C(C)C)O2 (stereo not drawn) [Compound 62, 1-cyclopropyl-5-isopropyl-8-(3-methoxypropoxy) -2-oxo-9-(trifluoromethyl)-5H-chromeno[4,3-b]pyridine-3-carboxylic acid] | 0.001 to 1
14 | COCCCOc1cc2c(cc1S(C)(=O)=O)-c1c(cc(C(=O)O)c(=O)n1C1CC1)C(C(C)C)O2 (stereo not drawn) [Compound 63, 1-cyclopropyl-5-isopropyl-8-(3-methoxypropoxy) -9-methylsulfonyl-2-oxo-5H-chromeno[4,3-b]pyridine-3-carboxylic acid] | 1 to 20
15 | CC(C)C1Oc2cc(OCC3COC3)c(F)cc2-c2c1cc(C(=O)O)c(=O)n2C1CC1 (stereo not drawn) [Compound 64, 1-cyclopropyl-9-fluoro-5-isopropyl-8-(oxetan-3-ylmethoxy)-2-oxo-5H-chromeno[4,3-b]pyridine-3-carboxylic acid] | 1 to 20
16 | CC(C)C1Oc2cc(OCC3(C)COC3)c(F)cc2-c2c1cc(C(=O)O)c(=O)n2C1CC1 (stereo not drawn) [Compound 65, 1-cyclopropyl-9-fluoro-5-isopropyl-8-[(3-methyloxetan-3-yl)methoxy]-2-oxo-5H-chromeno[4,3-b]pyridine-3-carboxylic acid] | 0.001 to 1
17 | COc1cc2c(cc1Cl)-c1c(cc(C(=O)O)c(=O)n1C1CC1)[C@@H](C1(C)COC1)O2 [Compound 66, (5S)-9-chloro-1-cyclopropyl-8-methoxy-5-(3-methyloxetan-3-yl)-2-oxo-5H-chromeno[4,3-b]pyridine-3-carboxylic acid] | 1 to 20
18 | COc1cc2c(cc1Cl)-c1c(cc(C(=O)O)c(=O)n1C1CC1)[C@H](C1(C)COC1)O2 [Compound 67, (5R)-9-chloro-1-cyclopropyl-8-methoxy-5-(3-methyloxetan-3-yl)-2-oxo-5H-chromeno[4,3-b]pyridine-3-carboxylic acid] | 0.001 to 1
19 | CC1(C2Oc3cc(OCC(F)(F)F)c(Cl)cc3-c3c2cc(C(=O)O)c(=O)n3C2CC2)COC1 (stereo not drawn) [Compound 68, 9-chloro-1-cyclopropyl-5-(3-methyloxetan-3-yl)-2-oxo-8-(2,2,2-trifluoroethoxy)-5H-chromeno[4,3-b]pyridine-3-carboxylic acid] | 0.001 to 1
20 | CC1(C2Oc3cc(OC[C@H]4COCCO4)c(Cl)cc3-c3c2cc(C(=O)O)c(=O)n3C2CC2)COC1 (stereo partly drawn) [Compound 69, 9-chloro-1-cyclopropyl-8-[[(2R)-1,4-dioxan-2-yl]methoxy]-5-(3-methyloxetan-3-yl)-2-oxo-5H-chromeno[4,3-b]pyridine-3-carboxylic acid] | 0.001 to 1
21 | CC1(C2Oc3cc(OC(F)F)c(Cl)cc3-c3c2cc(C(=O)O)c(=O)n3C2CC2)COC1 (stereo not drawn) [Compound 70, 9-chloro-1-cyclopropyl-8-(difluoromethoxy)-5-(3-methyloxetan-3-yl)-2-oxo-5H-chromeno[4,3-b]pyridine-3-carboxylic acid] | 1 to 20
22 | COCCCOc1cc2c(cc1Br)-c1c(cc(C(=O)O)c(=O)n1C1CC1)C(C(C)C)O2 (stereo not drawn) [Compound 71, 9-bromo-1-cyclopropyl-5-isopropyl-8-(3-methoxypropoxy) -2-oxo-5H-chromeno[4,3-b]pyridine-3-carboxylic acid] | 0.001 to 1
23 | CC1(C2Oc3cc(OCC4CN(S(C)(=O)=O)C4)c(Cl)cc3-c3c2cc(C(=O)O)c(=O)n3C2CC2)COC1 (stereo not drawn) [Compound 72, 9-chloro-1-cyclopropyl-5-(3-methyloxetan-3-yl)-8-[(1-methylsulfonylazetidin-3-yl)methoxy]-2-oxo-5H-chromeno[4,3-b]pyridine-3-carboxylic acid] | 1 to 20
24 | COc1cc2c(cc1OC)-c1c(cc(C(=O)O)c(=O)n1C1CC1)C(CSC)O2 (stereo not drawn) [Compound 74, 1-cyclopropyl-8,9-dimethoxy-5-(methylsulfanylmethyl)-2-oxo-5H-chromeno[4,3-b]pyridine-3-carboxylic acid] | > 100
